Measurements reported in patent US20220142160A1, “METHOD OF INHIBITING OR REDUCING BIOFILM IN A PETROLEUM PRODUCTION PROCESS” (KEMIRA OYJ, priority 2019, published 2022).
Values joined by “and” are separate entries in the source; they are usually repeats but may differ in a detail not shown here. Equal entries are not always repeated.

What was measured:
Type in all cases: cell-based, mixed culture of oil field bacteria
[1] = test system: mixed oilfield bacterial consortia; test: Biocidal activity on mixed oilfield bacterial consortia (bacterial counts)
Method: (§1) A mixed culture of oil field bacteria with Sulphate Reducing Bacteria (SRB), Acid Producing Bacteria (APB), and General Heterotrophic Bacteria (GHB) that came from an oil field system and had been frozen in glycerol maintained at −80° C. was used to study the effect of the test chemical compounds on biofilm formation and control thereof.
(§2) Biofilm tests were performed in 3.5 weight-% nutrient brine (NB) solution with minimal nutrients and a mixture of dodecane isomers, which are customary in oil field production waters and storage tanks.
(§3) The oilfield bacteria consortia was inoculated into the 3.5 weight-% nutrient brine solution and allowed to acclimate overnight at 32° C. in bulk. After acclimation, the solution was divided into 250 mL Pyrex bottles to contain 200 mL of the inoculated 3.5 weight-% nutrient brine and 25 mL of dodecane. Biofilms were grown on glass slides as removable attachment surfaces. Bottles were incubated at 32° C. with a rotary shaking (75 rpm) providing medium flow in each container.
(§4) Reactors each containing 200 mL of 3.5% nutrient brine were inoculated with the oilfield bacterial consortia and 25 mL of dodecane was treated with different amounts of the chemical compounds to be tested. A nitrogen blanket was added to the top of each reactor to minimize the oxygen content and allow a beneficial environment for anaerobic bacterial growth. […]

[2] = test system: Sulphate Reducing Bacteria (SRB); test: Sessile bacterial counts from biofilm scraped off glass slides, SRB; conditions: slide scraped day 6, 3.5% nutrient brine with dodecane, 32° C., 75 rpm
Method: as §1, §2, §3, §4

[3] = test system: biofilm of mixed oilfield consortia; test: Quantification of formed biofilm, weight gain of glass slides; set-up: average weight gain of Slides A and B: unit: mg; conditions: for average weight gain of Slides A and B: day 6; for Slide A weight gain: slide removed day 6, dried and weighed without further manipulation; for Slide B weight gain: slide removed day 6, scraped at 1 cm^2, then dried and weighed
Method: as §1, §2, §3
Two glass slides were added to each reactor bottle as described above and below and were removed at the end of the 6-day test for observation of biofilm accumulation, with the following considerations. For biofilm control experiments comprising biofilm removal from glass slides in 3.5% nutrient brine media inoculated with the mixed oilfield bacterial cultures and dodecane, biofilm was grown without addition of any test chemical compound to be tested in the control. In the reactors containing the test chemical compound, they were re-dosed daily for 5 days. A nitrogen blanket was added to each reactor after each dosing.
As described above, two glass slides were added to each reactor bottle. One was used for bacterial counts and the second was used to observe for biofilm accumulation. The second glass slide used to observe for growth was rinsed with deionized water, dried for 20 hours at 70° C., weighed and photographed. The weight values shown in the following tables are weights from 3 replicate reactor bottles. All weight values are given as actual measured values of the glass slides.
Table 3 presents results related to the effect on biofilm biomass of Compound A and AMA-324 dosing on the mixed oilfield consortia in 3.5 weight-% nutrient brine with dodecane at 32° C. and 75 rpm. Compound A was dosed daily for 5 days. AMA-324 was dosed at initial set-up only. Two glass slides were each weighed and added to each test container at set-up. After dosing for 5 days, at day 6, the slides were removed for analysis. Slide A was dried and weighed without further manipulation. Slide B was scrapped at 1 cm^2 with a sterile wooden stick into sterile phosphate buffer solution for bacterial counts. The scraped glass slide was then dried and weighed.

[4] = test system: Acid Producing Bacteria (APB); test: Bacterial growth control test, planktonic bacterial counts, APB; conditions: 75 ppm AMA-324 (active ingredient), sampled day 6; 3.5% nutrient brine with dodecane, 32° C., 75 rpm
Method: as §1, §2, §3, §4

[5] = test system: Sulphate Reducing Bacteria (SRB); test: Bacterial growth control test, planktonic bacterial counts, SRB; conditions: 75 ppm AMA-324 (active ingredient), sampled day 6; 3.5% nutrient brine with dodecane, 32° C., 75 rpm
Method: as §1, §2, §3, §4

[6] = test system: General Heterotrophic Bacteria (GHB); test: Bacterial growth control test, planktonic bacterial counts, GHB; conditions: 75 ppm AMA-324 (active ingredient), sampled day 6; 3.5% nutrient brine with dodecane, 32° C., 75 rpm
Method: as §1, §2, §3, §4

[7] = test system: biofilm biomass; test: Optical density measurements of biofilm biomass; conditions: data not shown
[8] = 75 ppm AMA-324 dosed at initial set-up only
[9] = 2 ppm Compound A dosed daily for 5 days
[10] = 5 ppm Compound A dosed daily for 5 days

Compound: CN1CSC(=S)N(C)C1 [AMA-324, Tetrahydro-3,5-dimethyl-2H-1,3,5-thiadiazine-2-thione, reference compound]
- biocidal activity (bacterial counts as compared to the control) ([1]; dosage of 75 ppm active ingredient alone): acted as a biocide
- Sessile Bacterial Counts/mL SRB bacterial ([2]; 75 ppm AMA-324 (active ingredient)): <0.6 Counts/mL
- average weight gain of Slides A and B [3, 8]: 1.60 and 2.05 and 1.85
- Slide A weight gain [3, 8]: 1.35 mg and 1.95 mg and 1.6 mg
- Slide B weight gain [3, 8]: 1.85 mg and 2.15 mg and 2.1 mg
- Planktonic Bacterial Counts/mL APB bacteria [4]: <0.3 Counts/mL
- Planktonic Bacterial Counts/mL SRB bacteria [5]: <0.3 Counts/mL
- Planktonic Bacterial Counts/mL GHB bacteria [6]: <0.3 Counts/mL

Compound: Cc1ccc(S(=O)(=O)C=CC#N)cc1 [Compound A, 3-[(4-methylphenyl)sulfonyl]-2-propenenitrile]
- biocidal activity (bacterial counts as compared to the control) ([1]; dosage range of 1 ppm to 5 ppm, mixed oilfield bacterial consortia, anaerobic environment): did not act as a biocidal agent
- Sessile Bacterial Counts/mL SRB bacterial ([2]; 5.0 ppm Compound A dosed daily for 5 days): 1.90E+07 Counts/mL
- average weight gain of Slides A and B [3, 9]: 0.22 and 0.40 and 0.20
- Slide B weight gain [3, 9]: 0.15 mg and 0.2 mg and 0.3 mg
- average weight gain of Slides A and B [3, 10]: 0.65 and 0.50 and 0.88
- Slide A weight gain [3, 10]: 0.7 mg and 0.75 mg and 0.85 mg
- biofilm formation (weight of slides versus control or AMA-324) ([3]; Table 3 results, 1 to 5 ppm dosed daily for 5 days): very effectively reduced biofilm formation
- amount of biofilm biomass by optical density measurements [7]: decreased the amount of biofilm biomass
